From PMC7367283, “A PIP2 substitute mediates voltage sensor-pore coupling in KCNQ activation” (Communications Biology, 2020)
Where “and” joins values, the source holds several entries; their conditions need not be identical. Equal values may be shown once.

Key:
Type in all cases: cell-based
KCNQ1 K354A/K358A = KCNQ1 K354A/K358A (Homo sapiens, UniProt P51787, K354A/K358A); test: Two-electrode voltage clamp of mutant KCNQ1 in Xenopus oocytes
Description: (§1) In a previous study, mutation of residues in the predicted PIP2-binding site reduced KCNQ1 currents. CP1 modifies voltage-dependent activation of KCNQ1 channels by shifting the voltage dependence of channel opening, measured as the voltage dependence of the conductance (G–V) relationship, to more negative voltages (Fig. 1c) among other characteristics (see below). We made mutations to the residues around the CP1-interacting pocket as indicated by molecular docking (Fig. 1b), and examined the effects of the mutations on the CP1-induced shift of the G–V relationship. The mutations of the KCNQ1 residues that interact with CP1 in docking simulations reduced the shift of the G–V relationship (Fig. 1c, d), supporting the interaction of these residues with CP1.
(§2) Complementary DNA (cDNA) encoding human KCNQ1 (UniProtKB/Swiss‐Prot under accession no. P51787), KCNQ2 (O43526), KCNQ3 (O43525), KCNE1 (P15382), Kir1.1 (P48048), hERG (Q12809), KV4.2 (Q63881), NaV1.5 (Q14524), NaV β1 (Q07699), CaV1.2 (Q13936), CaV β1a (Q02641), CaV α2/δ1 (P54289), and HCN4 (Q9Y3Q4) were subcloned into oocyte expression vectors, respectively. Site-directed mutations of the KCNQ1 channel were all produced by overlap extension polymerase chain reaction (PCR) with high-fidelity Pfu polymerase (Stratagene, CA). The presence of the desired mutation was verified by sequencing the PCR-amplified regions. All the primer sequences used in this study are available in Supplementary Table 1. The complementary RNA (cRNA) of all these channels and mutations was transcribed in vitro with the T3, T7, or SP6 polymerase mMessage mMachine kit (Invitrogen, Thermo Fisher Scientific, MO).
(§3) The use of Xenopus laevis to obtain oocytes was approved by the Washington University Animal Studies Committee (protocol #20190030). Oocytes were manually dispersed and digested with collagenase (0.5 mg/ml, Sigma-Aldrich, Saint Louis, MO) to remove the follicle cell layer. Stage V or VI oocytes were selected and injected with cRNAs (9.2 ng) of channel or mutations. Especially, to characterize IKs, a mix of cRNAs at a molar ratio 4:1 (KCNQ1:KCNE1) was injected. For KCNQ2/KCNQ3, the molar ratio was 1:1 (KCNQ2:KCNQ3). For sodium channels, a 3:1 molar ratio (β1:NaV1.5) and for calcium channels a weight ratio 1:1:1 (β1:α2/δ1:CaV1.2) was injected, respectively. Injected oocytes were incubated in ND96 solution containing (in mM) 96 NaCl, 2 KCl, 1.8 CaCl2, 1 MgCl2, and 5 HEPES, pH 7.6, supplemented with 2.5 mM Na pyruvate and 1% penicillin–streptomycin, at 18 °C for 3–7 days before recording.
(§4) The whole-oocyte ionic currents were recorded with a GeneClamp 500B amplifier (Axon Instruments, CA) or iTEV90 amplifier (HEKA, Germany) and then sampled at 1 kHz and low-pass-filtered at 2 kHz. The Patchmaster software (HEKA, Germany) was used to acquire data. The Kir1.1 current was recorded with a high K^+ bath solution containing (in mM) 96 KCl, 4 NaCl, 1 CaCl2, 2 MgCl2, and 10 HEPES, pH 7.3–7.4. The HCN4 current was recorded in ND66 solution containing (in mM) 66 NaCl, 32 KCl, 1.8 CaCl2, 1 MgCl2, and 5 HEPES, pH 7.6. All the other potassium channels were recorded in ND96 solution. The currents of CaV1.2 channel were recorded in 40 mM Ba^2+ bath solution containing (in mM) 40 Ba(OH)2, 50 TEA-OH, 2 KOH, and 5 HEPES, adjusted to pH 7.4 with methanesulfonic acid. CP1 (DISODIUM 5-BROMO-2-[9-CHLORO-3-(SULFONATOOXY) NAPHTHO [1,2-B] THIEN-2-YL]-1H-INDOL-3-YL SULFATE, Sigma-Aldrich, MO) and Chromanol 293B (Sigma-Aldrich, MO) were dissolved in bath solutions. All the chemicals were purchased from Sigma-Aldrich. To measure the I–V relations of the Kir1.1 channel, the test voltage was set from −100 to +60 mV for 1 s with 20-mV increments. The test pulses were stepped from a holding potential of 0 mV and then stepped back to 0 mV. The HCN4 currents were recorded by a test pulse between −30 and −140 mV in 10-mV step from a holding potential of −30 mV. […]

KCNQ1 R243A = KCNQ1 R243A (Homo sapiens, UniProt P51787, R243A); test: as above; conditions: 10 µM CP1, individual oocytes
Description: as §1, §2, §3, §4

IKs (KCNQ1 + KCNE1) = IKs (KCNQ1 + KCNE1) (Homo sapiens, UniProt P51787); test: IKs co-expressed with CiVSP (PIP2 depletion), two-electrode voltage clamp in Xenopus oocytes
Description: We co-expressed KCNQ1 with the voltage-dependent lipid phosphatase CiVSP[44] in Xenopus oocytes and recorded KCNQ1 currents using two-electrode voltage clamp with consecutive depolarizing voltage pulses. […] To more directly test CP1 effects, we applied CP1 to the intracellular side of the inside-out membrane patch that expressed IKs channels.

O=S(=O)([O-])Oc1c(-c2sc3c(ccc4cccc(Cl)c43)c2OS(=O)(=O)[O-])[nH]c2ccc(Br)cc12.[Na+].[Na+] [CP1, DISODIUM 5-BROMO-2-[9-CHLORO-3-(SULFONATOOXY) NAPHTHO [1,2-B] THIEN-2-YL]-1H-INDOL-3-YL SULFATE]
G/Gmax (KCNQ1 K354A/K358A; 10 µM CP1, 0 mV): 0.9071 | G/Gmax (KCNQ1 K354A/K358A; 10 µM CP1, 10 mV): 0.9519 | G/Gmax (KCNQ1 K354A/K358A; 10 µM CP1, 20 mV): 0.9897 | G/Gmax (KCNQ1 K354A/K358A; 10 µM CP1, 30 mV): 1.0000 | G/Gmax (KCNQ1 K354A/K358A; 10 µM CP1, -10 mV): 0.8497 | G/Gmax (KCNQ1 K354A/K358A; 10 µM CP1, -20 mV): 0.7541 | G/Gmax (KCNQ1 K354A/K358A; 10 µM CP1, -30 mV): 0.6165 | G/Gmax (KCNQ1 K354A/K358A; 10 µM CP1, -40 mV): 0.4576 | G/Gmax (KCNQ1 K354A/K358A; 10 µM CP1, -50 mV): 0.3124 | G/Gmax (KCNQ1 K354A/K358A; 10 µM CP1, -60 mV): 0.2094 | G/Gmax (KCNQ1 K354A/K358A; 10 µM CP1, -70 mV): 0.1390 | G/Gmax (KCNQ1 K354A/K358A; 10 µM CP1, -80 mV): 0.0950 | G/Gmax (KCNQ1 K354A/K358A; 10 µM CP1, -90 mV): 0.0670 | G/Gmax (KCNQ1 K354A/K358A; 10 µM CP1, -100 mV): 0.0415 | G/Gmax (KCNQ1 K354A/K358A; 10 µM CP1, -110 mV): 0.0111 | G/Gmax (KCNQ1 K354A/K358A; 10 µM CP1, -120 mV): 0.0033 | ∆V1/2 (KCNQ1 K354A/K358A; 10 µM CP1, individual oocytes): 24.6605 mV and 42.476 mV and 38.8398 mV and 35.894 mV | ∆V1/2 (KCNQ1 R243A): 24.1172 mV and 49.8519 mV and 42.6967 mV and 36.2884 mV and 45.9483 mV and 47.7413 mV | IKs currents after PIP2 depletion (IKs (KCNQ1 + KCNE1); 10 µM CP1, extracellular perfusion, pulses to +60 mV): rescued IKs currents | membrane permeability (IKs (KCNQ1 + KCNE1); inferred from rescue by extracellular perfusion): membrane permeable
